The target of experiment [1] is T1, VvCYP76F14 ('Marselan', Aromatic type) (Vitis vinifera, UniProt A0A1B2ZBX8).
T1 construct: 499 residues; natural allele, versus Yanniang No.2: N46S/N111K/R175Q/L222V/M264I/S286N/L298V/K325T/E378G/T380A/E383D/T386A; MBP fusion in E. coli, MBP cut off with TEV protease; reductase partner Arabidopsis ATR1
Briefly: substrate depletion by HPLC-HRMS. The format is biochemical. The settings on record: 1 mM NADPH; ATR1 reductase; pH 5.0; 25 °C; 1 h.

Experiment [2] concerns the target VvCYP76F14 ('Yanniang No.2', Full-Bodied type) (Vitis vinifera, UniProt A0A1B2ZBX8, L351V, form not given). The settings on record: 1 mM NADPH; ATR1 reductase (VvCYP76F14:ATR1 2:1); 100 mM Na+/K+ phosphate pH 5.0; 25 °C; 1 h.
The target in experiment [3] is VvCYP76F14 ('Yanniang No.2', Full-Bodied type) (Vitis vinifera, UniProt A0A1B2ZBX8, E431G, form not given). The settings on record: 1 mM NADPH; ATR1 reductase (VvCYP76F14:ATR1 2:1); 100 mM Na+/K+ phosphate pH 5.0; 25 °C; 1 h.
Chain of VvCYP76F14 ('Yanniang No.2', Full-Bodied type) (Vitis vinifera, UniProt A0A1B2ZBX8, E431G, form not given) (A0A1B2ZBX8 entry or part of it E431G, form open): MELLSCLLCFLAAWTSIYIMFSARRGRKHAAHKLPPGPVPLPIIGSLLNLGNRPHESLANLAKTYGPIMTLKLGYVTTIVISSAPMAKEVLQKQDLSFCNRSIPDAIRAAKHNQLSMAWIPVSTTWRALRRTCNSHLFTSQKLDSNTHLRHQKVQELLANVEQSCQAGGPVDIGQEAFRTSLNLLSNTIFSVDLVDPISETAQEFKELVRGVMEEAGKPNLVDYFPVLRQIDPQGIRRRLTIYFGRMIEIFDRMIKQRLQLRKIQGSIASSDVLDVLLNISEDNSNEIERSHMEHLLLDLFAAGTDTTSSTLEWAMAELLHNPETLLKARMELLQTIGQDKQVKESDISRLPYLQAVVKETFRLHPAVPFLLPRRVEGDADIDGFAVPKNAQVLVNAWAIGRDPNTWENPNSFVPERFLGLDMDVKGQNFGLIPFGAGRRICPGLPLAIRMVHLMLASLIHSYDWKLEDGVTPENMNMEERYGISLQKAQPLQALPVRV
The target in experiment [4] is VvCYP76F14 ('Yanniang No.2', Full-Bodied type) (Vitis vinifera, UniProt A0A1B2ZBX8, I173L, form not given). To be noted: 1 mM NADPH; ATR1 reductase (VvCYP76F14:ATR1 2:1); 100 mM Na+/K+ phosphate pH 5.0; 25 °C; 1 h.
Chain of VvCYP76F14 ('Yanniang No.2', Full-Bodied type) (Vitis vinifera, UniProt A0A1B2ZBX8, I173L, form not given) (A0A1B2ZBX8 entry or part of it I173L, form open): as the sequence (A0A1B2ZBX8 entry or part of it E431G, form open) above, with I173L, G431E counted along it
In experiment [5] the target is VvCYP76F14 ('Yanniang No.2', Full-Bodied type) (Vitis vinifera, UniProt A0A1B2ZBX8). To be noted: 1 mM NADPH; ATR1 reductase (VvCYP76F14:ATR1 2:1); 100 mM Na+/K+ phosphate pH 5.0; 25 °C; 1 h.
Chain of VvCYP76F14 ('Yanniang No.2', Full-Bodied type) (Vitis vinifera, UniProt A0A1B2ZBX8) (A0A1B2ZBX8 entry or part of it): as the sequence (A0A1B2ZBX8 entry or part of it E431G, form open) above, with G431E counted along it

This note sets out measurements from article PMC11502375, “Cytochrome P450 VvCYP76F14 dominates the production of wine bouquet precursors in wine grapes” (Frontiers in Plant Science, 2024).

Chain of VvCYP76F14 ('Yanniang No.2', Full-Bodied type) (Vitis vinifera, UniProt A0A1B2ZBX8, L351V, form not given) (A0A1B2ZBX8 entry or part of it L351V, form open): as the sequence (A0A1B2ZBX8 entry or part of it E431G, form open) above, with L351V, G431E counted along it
T1 sequence (A0A1B2ZBX8 entry or part of it): as the sequence (A0A1B2ZBX8 entry or part of it E431G, form open) above, with G431E counted along it

On to `C=CC(C)(O)CC/C=C(\C)CO` (centres unmarked) [(E)-8-hydroxylinalool], for which the specific activity entry in experiment [1] is “(E)-8-hydroxylinalool (dehydrogenation), and (E)-8-oxolinalool (carboxylation) as substrates”. The Km in experiment [2] came out at 30.6 ± 2.85 µM; in experiment [3], 65 ± 6.98 µM; in experiment [4], 76.7 ± 7.22 µM; in experiment [5], 29.1 ± 2.66 µM.
Take `C=CC(C)(O)CC/C=C(\C)C=O` (centres unmarked) [(E)-8-oxolinalool]: the Km was found to be 41.9 ± 5.24 µM in experiment [2], 88.5 ± 9.85 µM in experiment [3], 90.8 ± 12.2 µM in experiment [4] and 41.4 ± 3.93 µM in experiment [5].
As for `C=CC(C)(O)CCC=C(C)C` (centres unmarked) [linalool], the specific activity result in experiment [1] was “All three VvCYP76F14s demonstrated catalytic activity in reactions utilizing linalool (hydroxylation)”. Also, the Km in experiment [2] came to 67.6 ± 6.94 µM; in experiment [3] it was 144 ± 15.6 µM; in experiment [4], 151 ± 14.6 µM; in experiment [5], 66.2 ± 5.63 µM.

Broadly, the Km is the substrate concentration at which the rate is half of its maximum.
